Measurements from ChEMBL document CHEMBL1201862, “PubChem BioAssay data set” (2004).
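Dose response: 5 concentrations. Exposure: 48 h. Format: 96-well plates. Endpoint: linear interpolation; highest concentration if not reached. GI50: concentration for 50% inhibition of growth.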 Activity calls are given as the source filed them. Cut-off read from the data, not from the text of the source: active = GI50 up to about 1.1 µM and inactive = higher.

Experiments:
Assay in all cases: NCI-60 cell line screen, 48 h
LXFL 529 = system: LXFL 529
DLD-1 = system: DLD-1
RXF 631 = system: RXF 631
DMS-114 = system: DMS-114
KM-20L2 = system: KM-20L2
DMS-273 = system: DMS-273
SNB-78 = system: SNB-78
HOP-18 = system: HOP-18
XF498 = system: XF498

Compound	GI50 (LXFL 529)	GI50 (DLD-1)	GI50 (RXF 631)	GI50 (DMS-114)	GI50 (KM-20L2)	GI50 (DMS-273)	GI50 (SNB-78)	GI50 (HOP-18)	GI50 (XF498)
OC(c1cc2ccccc2[nH]1)C(O)(c1cc2ccccc2[nH]1)c1cc2ccccc2[nH]1 (configuration not stated)	10 µM (inactive)	11 µM (inactive)	17.4 µM (inactive)	7.31 µM (inactive)	10.1 µM (inactive)	17.9 µM (inactive)			
N=C(N)SCc1cn2ccccc2n1		77.8 µM (inactive)		> 100 µM (inactive)		> 100 µM (inactive)	> 100 µM (inactive)	> 100 µM (inactive)	> 100 µM (inactive)
COc1cc2cc(OC(C)=O)c3cc4c(cc3c2c(OC)c1OC)OCO4	> 100 µM (inactive)	> 100 µM (inactive)	> 100 µM (inactive)	> 100 µM (inactive)	> 100 µM (inactive)	> 100 µM (inactive)	> 100 µM (inactive)	> 100 µM (inactive)	> 100 µM (inactive)
CC1(C=O)C(=O)CCC2(C)C3CC(=O)OC3CCC12 (configuration not stated)	> 100 µM (inactive)	> 100 µM (inactive)		> 100 µM (inactive)	> 100 µM (inactive)	> 100 µM (inactive)		> 100 µM (inactive)	
O=C(O)c1ccc(C2COc3ccc(Cl)cc3C2)cc1 (configuration not stated)	> 100 µM (inactive)	> 100 µM (inactive)		> 100 µM (inactive)	> 100 µM (inactive)	> 100 µM (inactive)	> 100 µM (inactive)	> 100 µM (inactive)	> 100 µM (inactive)
CC1=N/C(=C\c2ccc(N)cc2)C(=O)N1Nc1nnc(NN2C(=O)/C(=C/c3ccc(N)cc3)N=C2C)c2ccccc12	36.3 µM (inactive)	> 100 µM (inactive)			> 100 µM (inactive)	77.3 µM (inactive)		27.1 µM (inactive)	
Nc1nc2[nH]cnc2c(=S)[nH]1 [THIOGUANINE]	8.45 µM (inactive)	0.962 µM (active)	0.527 µM (active)	0.849 µM (active)	0.782 µM (active)	0.445 µM (active)	2.23 µM (inactive)	5.64 µM (inactive)	1.09 µM (active)
O=C1/C(=C/c2ccc(Br)cc2)CCC/C1=C\c1ccc(Br)cc1	3.82 µM (inactive)	5.04 µM (inactive)	5.05 µM (inactive)	13.2 µM (inactive)	5.22 µM (inactive)	3.57 µM (inactive)	18.7 µM (inactive)	13.6 µM (inactive)	21.8 µM (inactive)
CCC(=O)N1C(=S)SC[C@H]1C(=O)OC	> 100 µM (inactive)	> 100 µM (inactive)		> 100 µM (inactive)	> 100 µM (inactive)	> 100 µM (inactive)	> 100 µM (inactive)	> 100 µM (inactive)	7.4 µM (inactive)
CCOC(=O)C(=O)Nc1ccc(C)c(C)c1	> 86.9 µM (inactive)	> 100 µM (inactive)	> 100 µM (inactive)	> 40.9 µM (inactive)	> 100 µM (inactive)	34.8 µM (inactive)	> 100 µM (inactive)		
CN(C)CCNC(=O)c1cccc2ncc(-c3ccccc3)nc12	6.81 µM (inactive)	5.45 µM (inactive)	9.59 µM (inactive)	12.8 µM (inactive)	3.81 µM (inactive)	5.09 µM (inactive)	8.89 µM (inactive)	5.85 µM (inactive)	
CCC1(c2ccncc2)CCC(=O)NC1=O (configuration not stated) [ROGLETIMIDE]	> 100 µM (inactive)	> 100 µM (inactive)	> 100 µM (inactive)	> 100 µM (inactive)	> 100 µM (inactive)		> 100 µM (inactive)		> 100 µM (inactive)
CC1C2CC=CC(=O)[C@@]2(C)CCC12OCCO2 (some centres not stated)	> 100 µM (inactive)	> 100 µM (inactive)		> 100 µM (inactive)	49.9 µM (inactive)	> 100 µM (inactive)	> 100 µM (inactive)		
Nc1nncs1		641 µM (inactive)		1960 µM (inactive)	301 µM (inactive)	450 µM (inactive)	3240 µM (inactive)	3030 µM (inactive)	879 µM (inactive)
O=C(CCn1[nH]c(=O)c(Cl)c(Cl)c1=O)NOCCCc1ccccc1	> 100 µM (inactive)	> 100 µM (inactive)	> 100 µM (inactive)		> 100 µM (inactive)	> 100 µM (inactive)	> 100 µM (inactive)	> 100 µM (inactive)	> 100 µM (inactive)
CCCCNCCCNCCCNC(=O)c1csc(-c2csc(CCNC(=O)C(NC(=O)C(C)C(O)C(C)NC(=O)C(NC(=O)c3nc(C(CC(N)=O)NCC(N)C(N)=O)nc(N)c3C)C(OC3OC(CO)C(O)C(O)C3OC3OC(CO)C(O)C(OC(N)=O)C3O)c3c[nH]cn3)C(C)O)n2)n1 (configuration not stated)	40.6 µM (inactive)	20.9 µM (inactive)	3.58 µM (inactive)	0.611 µM (active)	61.5 µM (inactive)	< 0.0458 µM (active)	> 73.3 µM (inactive)	37.7 µM (inactive)	
CC1=C(C(=O)Nc2ccccc2C)C(c2ccc(C3C(C(=O)Nc4ccccc4C)=CNC=C3C(=O)Nc3ccccc3C)cc2)C(C(=O)Nc2ccccc2C)=C(C)N1	10.9 µM (inactive)	13.6 µM (inactive)		23.3 µM (inactive)	14.7 µM (inactive)	20.7 µM (inactive)	30.2 µM (inactive)	37 µM (inactive)	22.8 µM (inactive)
COC(=O)C1C(=O)CC2CCCCC21 (configuration not stated)	> 100 µM (inactive)	> 100 µM (inactive)		> 100 µM (inactive)	> 100 µM (inactive)	> 100 µM (inactive)	> 100 µM (inactive)		
NCCCCCCNCc1cccc2ccccc12	> 100 µM (inactive)	> 100 µM (inactive)		> 100 µM (inactive)	58.3 µM (inactive)		> 100 µM (inactive)	24.2 µM (inactive)	44.2 µM (inactive)
O=C1OC2(c3ccccc3Oc3ccccc32)c2ccccc21	> 100 µM (inactive)	> 100 µM (inactive)		> 100 µM (inactive)	> 100 µM (inactive)	> 100 µM (inactive)	> 100 µM (inactive)	> 100 µM (inactive)	
CCOP1(=O)C=C(C)C(Cl)=C(C)C1 (configuration not stated)	17.3 µM (inactive)	25.9 µM (inactive)	2.75 µM (inactive)	17.5 µM (inactive)	32.7 µM (inactive)	13.6 µM (inactive)		68.7 µM (inactive)	26.8 µM (inactive)
COc1c(C)c(O)c2c(=O)cc(-c3ccccc3)oc2c1C	> 100 µM (inactive)	> 100 µM (inactive)	> 100 µM (inactive)	> 100 µM (inactive)	> 100 µM (inactive)		> 100 µM (inactive)	> 100 µM (inactive)	
O=C(/C=C/c1ccccc1O)c1cccc2ccccc12	36.2 µM (inactive)	37.3 µM (inactive)	> 100 µM (inactive)	21.4 µM (inactive)	> 100 µM (inactive)	54.5 µM (inactive)	> 100 µM (inactive)	28.1 µM (inactive)	25.8 µM (inactive)
O=C1C=CC(CC(=O)c2ccc3ccccc3c2)O1 (configuration not stated)	18.4 µM (inactive)	28.7 µM (inactive)			20.5 µM (inactive)	20 µM (inactive)	34.9 µM (inactive)	35 µM (inactive)	66.5 µM (inactive)
CN(C)c1n/c(=N/c2ncn[nH]2)ss1	> 100 µM (inactive)	> 100 µM (inactive)		> 100 µM (inactive)	> 100 µM (inactive)	> 100 µM (inactive)	> 100 µM (inactive)	> 100 µM (inactive)	> 100 µM (inactive)
CN(/N=C/c1cccc2cccnc12)c1c([N+](=O)[O-])cc([N+](=O)[O-])cc1[N+](=O)[O-]	> 100 µM (inactive)	> 100 µM (inactive)	> 100 µM (inactive)	6.52 µM (inactive)	> 100 µM (inactive)	7.6 µM (inactive)	> 100 µM (inactive)	> 100 µM (inactive)	> 100 µM (inactive)
CCCCCCCCCCCCCCCC(=O)OCCOCCOCCOCc1ccccc1		> 100 µM (inactive)				> 100 µM (inactive)	> 100 µM (inactive)	50.8 µM (inactive)	> 100 µM (inactive)
CN1CCC(=O)/C(=C/c2ccccc2)C1	6.32 µM (inactive)	6.24 µM (inactive)	16.7 µM (inactive)	9.68 µM (inactive)	12.4 µM (inactive)	6.55 µM (inactive)	19.6 µM (inactive)	18.2 µM (inactive)	18.7 µM (inactive)
